US12077503B2, “Substituted cyclic amides and their use as herbicides” (FMC CORPORATION, priority 2015, dated 2024)
Read-outs that look alike come from different tables or passages of the source.

How the values were obtained:
Assay type in all cases: in vivo
[1] = test system: pigweed (Amaranthus retroflexus); assay: Test A postemergence; conditions: Amaranthus retroflexus, post-emergence, 240 h; for pest or weed control at 125 g/ha: 125 g ai/ha, postemergence; for pest or weed control at 31 g/ha: Postemergence, 31 g ai/ha, visual injury after approx. 10 d, 0 to 100 scale, 0 no effect, 100 complete control, read-out: Plant response rating, Pigweed
Outline: (§1)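 Seeds sprayed preemergence with a directed soil spray, or plants at 2 to 10 cm height and one- to two-leaf stage sprayed postemergence, with test chemicals in a non-phytotoxic solvent mixture containing surfactant, in loam soil–sand blend. Injury rated visually against untreated controls after about 10 d in greenhouse, 0 (no effect) to 100 (complete control).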

[2] = test system: Galium (catchweed bedstraw, Galium aparine); assay: Test A postemergence; conditions: Galium, post-emergence, 240 h; for pest or weed control at 125 g/ha: 125 g ai/ha, postemergence, visual injury on 0 to 100 scale (0 no effect, 100 complete control), approx. 10 d, read-out: Galium plant response rating; for pest or weed control at 31 g/ha: Postemergence, 31 g ai/ha, visual injury after approx. 10 d, 0 to 100 scale, 0 no effect, 100 complete control, read-out: Plant response rating, Galium
Outline: as §1

[3] = test system: giant foxtail (Setaria faberii); assay: Test A postemergence; conditions: Setaria faberi, post-emergence, 240 h; for pest or weed control at 125 g/ha: 125 g ai/ha, postemergence, visual injury on 0 to 100 scale (0 no effect, 100 complete control), approx. 10 d, read-out: Foxtail, Giant plant response rating; for pest or weed control at 31 g/ha: Postemergence, 31 g ai/ha, visual injury after approx. 10 d, 0 to 100 scale, 0 no effect, 100 complete control, read-out: Plant response rating, Foxtail, Giant
Outline: as §1

corn (Zea mays) = assay: Test A postemergence; conditions: Zea mays, post-emergence, 240 h; for plant injury at 125 g/ha: 125 g ai/ha, postemergence, visual injury on 0 to 100 scale (0 no effect, 100 complete control), approx. 10 d, read-out: Corn plant response rating; for Corn plant response rating (crop injury, 0 = no effect, 100 = complete kill) at 31 g/ha: Postemergence, 31 g ai/ha, visual injury after approx. 10 d, 0 to 100 scale, 100 complete control
Outline: as §1

Kochia (Kochia scoparia) [4] = assay: Test A postemergence; conditions: Bassia scoparia, post-emergence, 240 h; for pest or weed control at 125 g/ha: 125 g ai/ha, postemergence, visual injury on 0 to 100 scale (0 no effect, 100 complete control), approx. 10 d, read-out: Kochia plant response rating; for pest or weed control at 31 g/ha: Postemergence, 31 g ai/ha, visual injury after approx. 10 d, 0 to 100 scale, 0 no effect, 100 complete control, read-out: Plant response rating, Kochia
Outline: as §1

[5] = test system: barnyardgrass (Echinochloa crus-galli); assay: Test A postemergence; conditions: Echinochloa crus-galli, post-emergence, 240 h; for pest or weed control at 125 g/ha: 125 g ai/ha, postemergence, visual injury on 0 to 100 scale (0 no effect, 100 complete control), approx. 10 d, read-out: Barnyardgrass plant response rating; for pest or weed control at 31 g/ha: Postemergence, 31 g ai/ha, visual injury after approx. 10 d, 0 to 100 scale, 0 no effect, 100 complete control, read-out: Plant response rating, Barnyardgrass
Outline: as §1

[6] = test system: ragweed (common ragweed, Ambrosia elatior); assay: Test A postemergence; conditions: Ambrosia artemisiifolia, post-emergence, 240 h; for pest or weed control at 125 g/ha: 125 g ai/ha, postemergence; for pest or weed control at 31 g/ha: Postemergence, 31 g ai/ha, visual injury after approx. 10 d, 0 to 100 scale, 0 no effect, 100 complete control, read-out: Plant response rating, Ragweed
Outline: as §1

[7] = test system: wheat (Triticum aestivum); assay: Test A postemergence; conditions: Triticum aestivum, post-emergence, 240 h; for plant injury at 125 g/ha: 125 g ai/ha, postemergence; for plant injury at 31 g/ha: Postemergence, 31 g ai/ha, visual injury after approx. 10 d, 0 to 100 scale, 0 no effect, 100 complete control, read-out: Plant response rating, Wheat
Outline: as §1

[8] = test system: ryegrass, Italian (Italian ryegrass, Lolium multiflorum); assay: Test A postemergence; conditions: Lolium multiflorum, post-emergence, 240 h; for pest or weed control at 125 g/ha: 125 g ai/ha, postemergence; for pest or weed control at 31 g/ha: Postemergence, 31 g ai/ha, visual injury after approx. 10 d, 0 to 100 scale, 0 no effect, 100 complete control, read-out: Plant response rating, Ryegrass, Italian
Outline: as §1

[9] = test system: blackgrass (Alopecurus myosuroides); assay: Test A postemergence; conditions: Alopecurus myosuroides, post-emergence, 240 h; for pest or weed control at 125 g/ha: 125 g ai/ha, postemergence, visual injury on 0 to 100 scale (0 no effect, 100 complete control), approx. 10 d, read-out: Blackgrass plant response rating; for pest or weed control at 31 g/ha: Postemergence, 31 g ai/ha, visual injury after approx. 10 d, 0 to 100 scale, 0 no effect, 100 complete control, read-out: Plant response rating, Blackgrass
Outline: as §1

rice (Oryra sativa) = assay: Test B flooded paddy test; conditions: Oryza sativa, 250 g ai/ha, Flood; 0 to 100 scale where 0 is no effect and 100 is complete control; read-out: Rice plant response rating
Outline: (§2)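 Plants at 2-leaf stage flooded to 3 cm above soil, with compounds applied directly to paddy water and that depth maintained. Plants kept in greenhouse 13–15 d. Visual rating versus controls on a 0 (no effect) to 100 (complete control) scale.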

[10] = test system: ducksalad (Heteranthera limosa); assay: Test B flooded paddy test; conditions: Heteranthera limosa, 250 g ai/ha, Flood; 0 to 100 scale where 0 is no effect and 100 is complete control; read-out: Ducksalad plant response rating
Outline: as §2

[11] = test system: sedge, umbrella (small-flower umbrella sedge, Cyperus difformis); assay: Test B flooded paddy test; conditions: Cyperus difformis, 250 g ai/ha, Flood; 0 to 100 scale where 0 is no effect and 100 is complete control; read-out: Sedge, Umbrella plant response rating
Outline: as §2

[12] = test system: barnyardgrass (Echinochloa crus-galli); assay: Test B flooded paddy test; conditions: Echinochloa crus-galli, 250 g ai/ha, Flood; 0 to 100 scale where 0 is no effect and 100 is complete control; read-out: Barnyardgrass plant response rating
Outline: as §2

[13] = test system: pigweed (Amaranthus retroflexus); assay: Test A preemergence; conditions: Amaranthus retroflexus, pre-emergence, 240 h, 0 to 100 scale where 0 is no effect and 100 is complete control, read-out: Pigweed plant response rating; for pest or weed control at 31 g/ha: 31 g ai/ha, Preemergence; for pest or weed control at 125 g/ha: 125 g ai/ha, preemergence, approx. 10 d
[14] = test system: giant foxtail (Setaria faberii); assay: Test A preemergence; conditions: Setaria faberi, pre-emergence, 240 h, 0 to 100 scale where 0 is no effect and 100 is complete control, read-out: Foxtail, Giant plant response rating; for pest or weed control at 31 g/ha: 31 g ai/ha, Preemergence; for pest or weed control at 125 g/ha: 125 g ai/ha, preemergence, approx. 10 d
Outline: as §1

Kochia (Kochia scoparia) [15] = assay: Test A preemergence; conditions: Bassia scoparia, pre-emergence, 240 h, 0 to 100 scale where 0 is no effect and 100 is complete control, read-out: Kochia plant response rating; for pest or weed control at 31 g/ha: 31 g ai/ha, Preemergence; for pest or weed control at 125 g/ha: 125 g ai/ha, preemergence, approx. 10 d
Outline: as §1

[16] = test system: barnyardgrass (Echinochloa crus-galli); assay: Test A preemergence; conditions: Echinochloa crus-galli, pre-emergence, 240 h, 0 to 100 scale where 0 is no effect and 100 is complete control, read-out: Barnyardgrass plant response rating; for pest or weed control at 31 g/ha: 31 g ai/ha, Preemergence; for pest or weed control at 125 g/ha: 125 g ai/ha, preemergence, approx. 10 d
Outline: as §1

[17] = test system: ragweed (common ragweed, Ambrosia elatior); assay: Test A preemergence; conditions: Ambrosia artemisiifolia, pre-emergence, 240 h, 0 to 100 scale where 0 is no effect and 100 is complete control, read-out: Ragweed plant response rating; for pest or weed control at 31 g/ha: 31 g ai/ha, Preemergence; for pest or weed control at 125 g/ha: 125 g ai/ha, preemergence, approx. 10 d
Outline: as §1

[18] = test system: ryegrass, Italian (Italian ryegrass, Lolium multiflorum); assay: Test A preemergence; conditions: Lolium multiflorum, pre-emergence, 240 h, 0 to 100 scale where 0 is no effect and 100 is complete control, read-out: Ryegrass, Italian plant response rating; for pest or weed control at 31 g/ha: 31 g ai/ha, Preemergence; for pest or weed control at 125 g/ha: 125 g ai/ha, preemergence, approx. 10 d
Outline: as §1

SMILES | pest or weed control at 31 g/ha [1] | pest or weed control at 125 g/ha [2] | pest or weed control at 31 g/ha [2] | pest or weed control at 125 g/ha [3] | pest or weed control at 31 g/ha [3] | plant injury at 125 g/ha (corn (Zea mays)) | Corn plant response rating (crop injury, 0 = no effect, 100 = complete kill) at 31 g/ha (corn (Zea mays)) | pest or weed control at 125 g/ha (Kochia (Kochia scoparia) [4]) | pest or weed control at 31 g/ha (Kochia (Kochia scoparia) [4]) | pest or weed control at 125 g/ha [5] | pest or weed control at 31 g/ha [5] | pest or weed control at 31 g/ha [6] | plant injury at 31 g/ha [7] | pest or weed control at 31 g/ha [8] | pest or weed control at 125 g/ha [9] | pest or weed control at 31 g/ha [9] | pest or weed control at 250 g/ha (rice (Oryra sativa)) | pest or weed control at 250 g/ha [10] | pest or weed control at 250 g/ha [11] | pest or weed control at 250 g/ha [12] | also measured
CN1C[C@H](c2ccc(Cl)cc2)[C@@H](C(=O)Nc2ccc(F)c(F)c2F)C1=O [Compound 1144] | 0% | 40% | 0% | 90% | 80% | 50% | 20% | 70% | 50% | 90% | 90% | 20% | 30% | 30% | 40% | 0% | 20% | 100% | 0% | 85% | pest or weed control at 125 g/ha ([1]; visual injury vs untreated controls after approx. 10 d, 0 = no effect, 100 = complete control, read-out: Pigweed plant response rating (0 to 100 scale)): 30%; pest or weed control at 125 g/ha ([6]; visual injury vs untreated controls after approx. 10 d, 0 = no effect, 100 = complete control, read-out: Ragweed plant response rating (0 to 100 scale)): 70%; plant injury at 125 g/ha ([7]; visual injury vs untreated controls after approx. 10 d, 0 = no effect, 100 = complete control, read-out: Wheat plant response rating (0 to 100 scale)): 50%; pest or weed control at 125 g/ha ([8]; visual injury vs untreated controls after approx. 10 d, 0 = no effect, 100 = complete control, read-out: Ryegrass, Italian plant response rating (0 to 100 scale)): 60%; pest or weed control at 31 g/ha [13]: 30%; pest or weed control at 125 g/ha [13]: 80%; pest or weed control at 31 g/ha [14]: 90%; pest or weed control at 125 g/ha [14]: 90%; pest or weed control at 31 g/ha (Kochia (Kochia scoparia) [15]): 50%; pest or weed control at 125 g/ha (Kochia (Kochia scoparia) [15]): 60%; pest or weed control at 31 g/ha [16]: 90%; pest or weed control at 125 g/ha [16]: 90%; pest or weed control at 31 g/ha [17]: 0%; pest or weed control at 125 g/ha [17]: 20%; pest or weed control at 31 g/ha [18]: 50%; pest or weed control at 125 g/ha [18]: 50%
CN1C[C@H](c2ccc(C(F)(F)F)nc2)[C@@](C)(C(=O)Nc2ccc(F)c(F)c2F)C1=O [Compound 1110] | 20% | 50% | 20% | 90% | 60% | 80% | 30% | 70% | 30% | 90% | 80% | 0% | 30% | 40% | 60% | 0% | 50% | 100% | 0% | 90% | pest or weed control at 125 g/ha ([1]; visual injury on 0 to 100 scale (0 no effect, 100 complete control), approx. 10 d, read-out: Pigweed plant response rating): 50%; pest or weed control at 125 g/ha ([6]; visual injury on 0 to 100 scale (0 no effect, 100 complete control), approx. 10 d, read-out: Ragweed plant response rating): 30%; plant injury at 125 g/ha ([7]; visual injury on 0 to 100 scale (0 no effect, 100 complete control), approx. 10 d, read-out: Wheat plant response rating): 70%; pest or weed control at 125 g/ha ([8]; visual injury on 0 to 100 scale (0 no effect, 100 complete control), approx. 10 d, read-out: Ryegrass, Italian plant response rating): 60%; pest or weed control at 31 g/ha [13]: 60%; pest or weed control at 125 g/ha [13]: 90%; pest or weed control at 31 g/ha [14]: 90%; pest or weed control at 125 g/ha [14]: 100%; pest or weed control at 31 g/ha (Kochia (Kochia scoparia) [15]): 0%; pest or weed control at 125 g/ha (Kochia (Kochia scoparia) [15]): 70%; pest or weed control at 31 g/ha [16]: 90%; pest or weed control at 125 g/ha [16]: 100%; pest or weed control at 31 g/ha [17]: 0%; pest or weed control at 125 g/ha [17]: 40%; pest or weed control at 31 g/ha [18]: 30%; pest or weed control at 125 g/ha [18]: 50%
